Assay results: US5334603A, “Composition and use of 3-phenyl-5-thiocyano-methylthio-1,3,4-thiadiazole-2(3h)thione” (The Dow Chemical Company, priority 1993, dated 1994)
Values after ≈ are worked out from the molar mass of the structure shown.

Experiments:
Type in all cases: cell-based
[1] = system: Aureobasidium pullulan (Ap); experiment: Minimum inhibitory concentration (MIC), malt yeast agar; settings: pH 5.5; ATCC 16622; 30° C.; 48 hours for yeast, 72 hours for fungi
Description: (§1) The minimum inhibitory concentration (MIC) for the compound is determined for 9 bacteria, using nutrient agar; and 7 yeast and fungi, using malt yeast agar. A one percent solution of the test compound is prepared in a mixture of acetone and water. Nutrient agar is prepared at pH 6.8, representing a neutral medium, and at pH 8.2, representing an alkaline medium. The nutrient agars are prepared by adding 23 g of nutrient agar to one-liter of deionized water. In addition, the alkaline medium is prepared by adjusting a 0.04M solution of N-[tris-(hydroxymethyl)methyl]-glycine buffered deionized water with concentrated sodium hydroxide to a pH of […]. Malt yeast agar is prepared by adding 3 g yeast extract and 45 g malt agar per liter of deionized water. The specific agar is dispensed in 30 ml aliquots into 25×200 mm test tubes, capped and autoclaved for 15 minutes at 115° C. The test tubes containing the agar are cooled in a water bath until the temperature of the agar is 48 ° C. Then, an appropriate amount of the one percent solution of the test compound is added (except in the controls where no compound is added) to the respective test tubes so that the final concentrations are 500, 250, 100, 50, 25, 10, 5, 2.5, 1.0 and zero parts per million of the test compound in the agar, thus having a known concentration of test compound dispersed therein. The contents of the test tubes are then transferred to respective petri plates. After drying for 24 hours, the petri plates containing nutrient agar are inoculated with bacteria and those containing malt yeast agar are inoculated with yeast and fungi.
(§2) The inoculation with the yeast and fungi is accomplished as follows. Cultures of yeast and fungi are incubated for seven days on malt yeast agar at 30° C. These cultures are used to prepare suspensions by the following procedure. A suspension of each organism is prepared by adding 10 ml of sterile saline and 10 microliters of octylphenoxy polyethoxy ethanol to the agar slant of yeast or fungi. The sterile saline/octylphenoxy polyethoxy ethanol solution is then agitated with a sterile swab to suspend the microorganism grown on the slant. Each resulting suspension is diluted into sterile saline (1 part suspension: 9 parts sterile saline). Aliquots of these dilutions are placed in individual wells of Steer's Replicator and petri plates inoculated as previously described. The petri plates are incubated at 30° C. and read after 48 hours for yeast and 72 hours for fungi.

[2] = system: Penicillium chrysogenum (Pc); experiment: as above; settings: pH 5.5; ATCC 9480; 30° C.; 48 hours for yeast, 72 hours for fungi
Description: as §1, §2

Aspergillus niger (An) = experiment: as above; settings: pH 5.5; ATCC 16404; 30° C.; 48 hours for yeast, 72 hours for fungi
Description: as §1, §2

Trichoderma viride (Tv) = experiment: as above; settings: pH 5.5; ATCC 8678; 30° C.; 48 hours for yeast, 72 hours for fungi
Description: as §1, §2

Fusarium oxysporum (Fo) = experiment: as above; settings: pH 5.5; ATCC 48112; 30° C.; 48 hours for yeast, 72 hours for fungi
Description: as §1, §2

[3] = system: Saccharomyces cerevisiae (Sc); experiment: as above; settings: ATCC4105, pH 5.5, ATCC 4105, 30° C., 48 hours for yeast, 72 hours for fungi
Description: as §1, §2

Candida Albicans (Ca) = experiment: as above; settings: pH 5.5; ATCC 10231; 30° C.; 48 hours for yeast, 72 hours for fungi
Description: as §1, §2

Bacillus subtilis (Bs) = experiment: Minimum inhibitory concentration (MIC), nutrient agar; settings: 48 hours
Description: as §1
(§3) The inoculation with bacteria is accomplished by using the following procedure. Twenty-four hour-cultures of each of the bacteria are prepared by incubating the respective bacteria in tubes containing nutrient broth for 24 hours at 30° C. in a shaker. Dilutions of each of the 24 hour-cultures are made so that nine separate suspensions (one for each of the nine test bacteria) are made, each containing 10^8 colony forming units (CFU) per ml of suspension of a particular bacteria. Aliquots of 0.3 ml of each of the bacterial suspensions are used to fill the individual wells of Steer's Replicator. For each microbial suspension, 0.3 ml was used to fill three wells (i.e., three wells of 0.3 ml each) so that for the nine different bacteria, 27 wells are filled. The Steer's Replicator is then used to inoculate both the neutral and alkaline pH nutrient agar petri plates.
(§4) The inoculated petri plates are incubated at 30° C. for 48 hours and then read to determine if the test compound which is incorporated into the agar prevented growth of the respective bacteria.

[4] = system: Staphylococcus aureus (Sa); experiment: as above; settings: 48 hours
Description: as §1, §3, §4

[5] = system: Salmonella choleraesuis (Sc); experiment: as above; settings: Salmonella enterica, ATCC 10708 / CHOLERAESUIS, 48 hours
Description: as §1, §3, §4

[6] = system: Klebsiella pneumoniae (Kp); experiment: as above; settings: 48 hours
Description: as §1, §3, §4

Proteus vulgaris (Pv) = experiment: as above; settings: 48 hours
Description: as §1, §3, §4

[7] = system: Pseudomonas aeruginosa (Pa); experiment: as above; settings: 48 hours
Description: as §1, §3, §4

Escherichia coli (Ec) = experiment: as above; settings: 48 hours
Description: as §1, §3, §4

[8] = system: Enterobacter aerogenes (Ea); experiment: as above; settings: Klebsiella aerogenes, ATCC13048, ATCC 13048, 30° C., 48 hours
Description: as §1, §3, §4

[9] = system: Pseudomonas aeruginosa (PRD-10); experiment: as above; settings: 48 hours
Description: as §1, §3, §4

Compound: N#CSCSc1nn(-c2ccccc2)c(=S)s1 [INVENTION, 3-phenyl-5-thiocyanomethylthio-1,3,4-thiadiazole-2(3H)thione]
- MIC [1]: 2.5 µg/mL (≈ 8.4 µM)
- MIC [2]: 2.5 µg/mL (≈ 8.4 µM)
- MIC (Aspergillus niger (An)): 5 µg/mL (≈ 16.8 µM)
- MIC (Trichoderma viride (Tv)): 25 µg/mL (≈ 84 µM)
- MIC (Fusarium oxysporum (Fo)): 10 µg/mL (≈ 33.6 µM)
- MIC [3]: 5 µg/mL (≈ 16.8 µM)
- MIC (Candida Albicans (Ca)): 25 µg/mL (≈ 84 µM)
- MIC (Bacillus subtilis (Bs); ATCC8473, pH 6.8, ATCC 8473, 30° C.): 100 µg/mL (≈ 336 µM)
- MIC (Bacillus subtilis (Bs); ATCC8473, pH 8.2, ATCC 8473, 30° C.): < 10 µg/mL
- MIC ([4]; ATCC6538, pH 6.8, ATCC 6538, 30° C.): 100 µg/mL (≈ 336 µM)
- MIC ([4]; ATCC6538, pH 8.2, ATCC 6538, 30° C.): 250 µg/mL (≈ 840 µM)
- MIC ([5]; pH 6.8, 30° C.): 100 µg/mL (≈ 336 µM)
- MIC ([5]; pH 8.2, 30° C.): 500 µg/mL (≈ 1680 µM)
- MIC ([6]; ATCC8308, pH 6.8, ATCC 8308, 30° C.): 100 µg/mL (≈ 336 µM)
- MIC ([6]; ATCC8308, pH 8.2, ATCC 8308, 30° C.): 250 µg/mL (≈ 840 µM)
- MIC (Proteus vulgaris (Pv); ATCC881, pH 6.8, ATCC 881, 30° C.): 100 µg/mL (≈ 336 µM)
- MIC (Proteus vulgaris (Pv); ATCC881, pH 8.2, ATCC 881, 30° C.): 250 µg/mL (≈ 840 µM)
- MIC ([7]; ATCC10145, pH 6.8, ATCC 10145, 30° C.): 50 µg/mL (≈ 168 µM)
- MIC ([7]; ATCC10145, pH 8.2, ATCC 10145, 30° C.): 50 µg/mL (≈ 168 µM)
- MIC (Escherichia coli (Ec); ATCC11229, pH 6.8, ATCC 11229, 30° C.): 100 µg/mL (≈ 336 µM)
- MIC (Escherichia coli (Ec); ATCC11229, pH 8.2, ATCC 11229, 30° C.): 500 µg/mL (≈ 1680 µM)
- MIC ([8]; pH 6.8): 100 µg/mL (≈ 336 µM)
- MIC ([8]; pH 8.2): > 500 µg/mL
- MIC ([9]; ATCC15442, pH 6.8, ATCC 15442, 30° C.): 50 µg/mL (≈ 168 µM)
- MIC ([9]; ATCC15442, pH 8.2, ATCC 15442, 30° C.): 100 µg/mL (≈ 336 µM)
